In paper PMC5845004, “Novel (p)ppGpp Binding and Metabolizing Proteins of Escherichia coli” (mBio, 2018):
Several values for one entry are separate records, joined by “and”; a condition that tells them apart may be missing. Equal entries are not always repeated. Entries after “also recorded” stand apart in the source; their conditions may differ.

Columns and labels:
[1] = biological target: T1, Hpt (Escherichia coli, UniProt P0A9M2); design: method as in ref 29-32 (Table S1 refs 1, 2); details: ref 29-32 (Table S1 refs 1, 2); cited from earlier work
[2] = biological target: Gmk; design: method as in Table S1 (4); details: ref Table S1 (4); read-out: Kd, S. aureus Gmk; cited from earlier work
[3] = biological target: HprT; design: method as in ref 39 (Table S1 ref 4); details: ref 39 (Table S1 ref 4); read-out: Kd, S. aureus HprT; cited from earlier work
[4] = biological target: MutT (Escherichia coli, UniProt P08337); assay: In vitro cleavage assay (TLC), MutT; type: biochemical, E. coli; details: for cleavage by MutT: purified MutT, buffer B with 10 mM MgCl2, TLC
Method: (§1) The purified His6-MutT and His6-NudG proteins were tested for their relative levels of cleavage of ppGpp compared to those seen with their native substrates. For this, a 1 μM concentration of each protein and a 10 nM concentration of [α-^32P]ppGpp were used together with 100 μM concentrations of cold competitors [ppGpp, GTP, ATP, 8-oxo-(d)GTP, 2-hydroxyl-(d)ATP] or 50 mM EDTA in buffer B. The samples were incubated at 30°C for 10 min and for 1 h before the reactions were stopped by adding 50 mM EDTA. The cleavage products were resolved by TLC as described above. The purified His6-NadR and His6-TrmE proteins were tested for their cleavage of both GTP and ppGpp. For cleavage of GTP, 10 μM concentrations of His6-MBP, His6-TrmE, and 20 μM His6-NadR proteins were used with 2 nM [α-^32P]GTP and 100 μM cold GTP in buffer B. For cleavage of ppGpp, 10 μM concentrations of His6-TrmE, His6-MBP, and His6-NadR proteins were used with 10 nM [α-^32P]ppGpp in buffer B. Of note, for His6-TrmE, another reaction was also performed in buffer B supplemented with 100 mM KCl. The reactions were performed at RT for 10 min and were stopped by adding 17% formic acid. The cleavage products were resolved by TLC as described above.
A 20 μM concentration of each of purified proteins MutT, NudG, NadR, TrmE, and MBP (as a negative control) was incubated with 100 μM ppGpp in buffer B (containing 40 mM Tris [pH 7.5], 100 mM NaCl, and 10 mM MgCl2) for 20 min at room temperature. Samples were snap-frozen on dry ice and analyzed with UPLC-MS afterward. All samples and buffers were stored at −80°C, thawed on ice, and kept at 4°C during analysis. For the analysis, a UPLC-quadrupole time of flight (UPLC-qTOF) method (Waters) was used. Analysis conditions were as follows: column, zic-HILIC (Merck Millipore) (150 by 2.1 mm, […], gradient elution, flow rate set to 0.3 ml/min); mobile phase A, 10 mM ammonium acetate (pH 5); mobile phase B, 90% acetonitrile with 10 mM ammonium acetate (pH 5). The gradient was set up as follows: min 0 to 2, 80% B; min 2 to 16, 80% B to 50% B; hold until min 20; injection volume, 4 µl. The detection conditions were as follows: photodiode array detector (PDA), […] (evaluated at 260 nm); MS, ionization; electrospray ionization (ESI+), scan, 200 to 800 m/z with lock mass correction. Analytes were identified by their accurate mass and retention time data for a known standard dissolved in used buffer (for the chemicals of the same nominal masses). These standards were either synthesized and their structures confirmed by nuclear magnetic resonance (NMR) (for ppGp, pGpp, and pGp) or purchased (ppGpp was purchased from Jena Biocsience and GTP from Sigma-Aldrich).

[5] = biological target: RsgA; design: method as in Table S1 (4); details: ref Table S1 (4); read-out: Kd, S. aureus RsgA (converted); cited from earlier work
[6] = biological target: T1, Hpt; assay: DRaCALA Kd determination, purified Hpt; type: binding, E. coli; details: 2 nM 32P-labeled ligand, read-out: apparent Kd, Hpt
Method: For Kd measurements by DRaCALA, 2-fold serial dilutions from the highest possible concentrations of each purified protein were prepared in binding buffer B, and approximately 2 nM concentrations of α-^32P-labeled ppGpp, pppGpp, GTP, and GDP were added. The mixtures were incubated for 5 min at RT before spotting of 2 µl of the reaction mixtures onto nitrocellulose membranes. The fractions of bound ligand and the apparent Kd values were calculated as previously described ([37]). For competition assays, purified proteins at the specified concentrations were incubated with 2 nM [α-^32P]ppGpp or [α-^32P]pppGpp in the presence of 100 μM competitor nucleotides in binding buffer B. The reaction mixtures were incubated for 5 min at RT, 2 µl was spotted onto nitrocellulose membranes, and the values corresponding to the bound fractions were determined. EDTA was added at excess concentrations as specified for each case.

[7] = biological target: EF-Tu; design: method as in Table S1 (9); details: ref Table S1 (9); cited from earlier work
[8] = biological target: Apt (Escherichia coli, UniProt P69503); details: cited from earlier work
[9] = biological target: TrmE (Escherichia coli, UniProt P25522); assay: In vitro cleavage assay (TLC), TrmE; type: biochemical, E. coli; details: 10 µM TrmE, buffer B, with 100 mM potassium where stated, 10 min
Method: as §1
A 20 μM concentration of each of purified proteins MutT, NudG, NadR, TrmE, and MBP (as a negative control) was incubated with 100 μM ppGpp in buffer B (containing 40 mM Tris [pH 7.5], 100 mM NaCl, and 10 mM MgCl2) for 20 min at room temperature. Samples were snap-frozen on dry ice and analyzed with UPLC-MS afterward. All samples and buffers were stored at −80°C, thawed on ice, and kept at 4°C during analysis. For the analysis, a UPLC-quadrupole time of flight (UPLC-qTOF) method (Waters) was used. […] The detection conditions were as follows: photodiode array detector (PDA), […] (evaluated at 260 nm); MS, ionization; electrospray ionization (ESI+), scan, 200 to 800 m/z with lock mass correction. […]

[10] = biological target: T2, NudG (Escherichia coli, UniProt P77788); assay: DRaCALA competition assay, lysate with overproduced NudG; type: binding, E. coli; details: whole-cell lysate, 2 nM hot (p)ppGpp, 100 µM cold competitor
T2 construct: expressed in transfected cells; host or cells: E. coli ASKA collection strain, IPTG-induced, whole-cell lysate
Method: (§2) Bacterial cells were collected and frozen at −80°C.

[11] = biological target: Era; design: method as in Table S1 (4); details: ref Table S1 (4); read-out: Kd, S. aureus Era (converted); cited from earlier work
[12] = biological target: T3, UshA (Escherichia coli, UniProt P07024); assay: DRaCALA competition assay, lysate with overexpressed UshA; type: binding; details: cell lysate, 2 nM hot (p)ppGpp, 100 µM cold competitor
T3 sequence (P07024 26-550): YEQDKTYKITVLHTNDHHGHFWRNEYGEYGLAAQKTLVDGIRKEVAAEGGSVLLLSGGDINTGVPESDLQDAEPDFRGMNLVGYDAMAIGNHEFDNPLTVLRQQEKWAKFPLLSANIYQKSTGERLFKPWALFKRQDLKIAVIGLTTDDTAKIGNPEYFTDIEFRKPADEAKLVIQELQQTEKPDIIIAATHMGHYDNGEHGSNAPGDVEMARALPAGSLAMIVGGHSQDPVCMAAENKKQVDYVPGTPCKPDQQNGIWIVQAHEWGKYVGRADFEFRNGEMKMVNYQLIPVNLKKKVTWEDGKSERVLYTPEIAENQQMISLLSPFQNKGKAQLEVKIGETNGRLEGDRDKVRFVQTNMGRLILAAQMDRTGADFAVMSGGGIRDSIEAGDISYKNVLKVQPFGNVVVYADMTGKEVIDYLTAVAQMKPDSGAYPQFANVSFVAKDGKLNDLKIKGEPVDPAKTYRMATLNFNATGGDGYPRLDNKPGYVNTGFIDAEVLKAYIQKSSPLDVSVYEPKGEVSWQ
Method: as §2

Sequence of MutT (P08337 whole entry): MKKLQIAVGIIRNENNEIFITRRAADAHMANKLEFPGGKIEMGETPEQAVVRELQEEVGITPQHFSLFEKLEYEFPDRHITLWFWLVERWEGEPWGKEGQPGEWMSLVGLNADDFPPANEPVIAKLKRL
T1 sequence (P0A9M2 whole entry): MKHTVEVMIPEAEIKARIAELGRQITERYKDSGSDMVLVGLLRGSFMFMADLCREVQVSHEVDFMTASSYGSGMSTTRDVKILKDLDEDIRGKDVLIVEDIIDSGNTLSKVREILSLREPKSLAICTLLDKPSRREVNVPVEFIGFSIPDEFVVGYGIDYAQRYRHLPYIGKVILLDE
T2 sequence (P77788 whole entry): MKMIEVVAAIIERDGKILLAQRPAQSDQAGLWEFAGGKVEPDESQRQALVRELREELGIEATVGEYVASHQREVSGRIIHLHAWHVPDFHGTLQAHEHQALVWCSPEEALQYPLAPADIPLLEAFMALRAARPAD
Sequence of TrmE (P25522 whole entry): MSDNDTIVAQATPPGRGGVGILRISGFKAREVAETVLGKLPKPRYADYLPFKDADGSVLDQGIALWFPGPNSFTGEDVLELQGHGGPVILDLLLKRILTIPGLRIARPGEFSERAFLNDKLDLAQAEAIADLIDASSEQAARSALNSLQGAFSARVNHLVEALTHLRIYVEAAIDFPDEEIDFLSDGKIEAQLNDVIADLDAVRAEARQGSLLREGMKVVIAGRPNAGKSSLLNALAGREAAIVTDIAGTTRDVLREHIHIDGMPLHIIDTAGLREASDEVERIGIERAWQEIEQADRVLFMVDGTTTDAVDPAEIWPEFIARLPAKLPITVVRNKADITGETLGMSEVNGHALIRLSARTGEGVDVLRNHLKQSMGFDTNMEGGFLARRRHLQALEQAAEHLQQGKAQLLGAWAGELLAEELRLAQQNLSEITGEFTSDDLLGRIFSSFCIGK
Sequence of Apt (P69503 whole entry): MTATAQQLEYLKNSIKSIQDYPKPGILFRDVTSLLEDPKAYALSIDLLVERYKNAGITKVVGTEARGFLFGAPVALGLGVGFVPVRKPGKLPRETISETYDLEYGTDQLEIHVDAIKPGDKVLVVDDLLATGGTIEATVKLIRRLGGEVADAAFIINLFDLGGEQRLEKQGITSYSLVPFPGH

| SMILES | IC50 [1] | Kd [2] [µM] | Kd [3] [nM] | inhibition of [α-32P]ppGpp cleavage by MutT ([4]; 1 µM MutT, 10 nM hot ppGpp, 100 µM competitor, 30°C, up to 1 h) | cleavage by MutT [4] | Kd [5] [µM] | Kd [6] [µM] | Ki [7] [µM] | IC50 [8] [mM] | cleavage by TrmE [9] | competition for NudG-bound (p)ppGpp [10] | Kd [11] [nM] | competition for UshA-bound (p)ppGpp [12] |
| --- | --- | --- | --- | --- | --- | --- | --- | --- | --- | --- | --- | --- | --- |
| Nc1nc2c(ncn2[C@@H]2O[C@H](COP(=O)(O)OP(=O)(O)O)[C@@H](OP(=O)(O)OP(=O)(O)O)[C@H]2O)c(=O)[nH]1 [ppGpp, guanosine tetraphosphate] | ~85 µM and 85 µM | 6.02 | 370 | very limited inhibitory effects | degraded into smaller products; also recorded: cleaved most ppGpp | 1.69 ± 0.13 | 6.1 ± 0.9 | 60 | ~1.5 | converted most of ppGpp | could outcompete the bound, radiolabeled (p)ppGpp | 950 ± 60 | could outcompete the bound, radiolabeled (p)ppGpp |
| Nc1nc2c(ncn2[C@@H]2O[C@H](COP(=O)(O)OP(=O)(O)OP(=O)(O)O)[C@@H](OP(=O)(O)OP(=O)(O)O)[C@H]2O)c(=O)[nH]1 [pppGpp, guanosine pentaphosphate] |  | 4.01 | 750 |  | degraded into smaller products | 10.3 | 6.2 ± 0.8 |  |  |  | could outcompete the bound, radiolabeled (p)ppGpp | 3850 | could outcompete the bound, radiolabeled (p)ppGpp |
